Data on one molecule can be found in article PMC8306566 (Marine Drugs, 2021).

Some targets named below: rα3β2 nAChR (Rattus norvegicus, UniProt P04757+P12390); rα6/α3β2β3 nAChR (Rattus norvegicus, UniProt P04757+P12390+P12391+P43143); rα2β2 nAChR (Rattus norvegicus, UniProt P12389+P12390); rα2β4 nAChR (Rattus norvegicus, UniProt P12389+P12392); rα4β4 nAChR (Rattus norvegicus, UniProt P09483+P12392); rα4β2 nAChR (Rattus norvegicus, UniProt P09483+P12390); rα6/α3β4 nAChR (Rattus norvegicus, UniProt P04757+P12392+P43143); rα7 nAChR (Rattus norvegicus, UniProt Q05941); rα9α10 nAChR (Rattus norvegicus, UniProt P43144+Q9JLB5).

Holding throughout (assay): cell-based
For a further assay, the target named is rα3β4 nAChR (Rattus norvegicus, UniProt P04757+P12392). Type of assay: cell-based.
rα3β4 nAChR, sequence (P04757 26-499 limits assumed): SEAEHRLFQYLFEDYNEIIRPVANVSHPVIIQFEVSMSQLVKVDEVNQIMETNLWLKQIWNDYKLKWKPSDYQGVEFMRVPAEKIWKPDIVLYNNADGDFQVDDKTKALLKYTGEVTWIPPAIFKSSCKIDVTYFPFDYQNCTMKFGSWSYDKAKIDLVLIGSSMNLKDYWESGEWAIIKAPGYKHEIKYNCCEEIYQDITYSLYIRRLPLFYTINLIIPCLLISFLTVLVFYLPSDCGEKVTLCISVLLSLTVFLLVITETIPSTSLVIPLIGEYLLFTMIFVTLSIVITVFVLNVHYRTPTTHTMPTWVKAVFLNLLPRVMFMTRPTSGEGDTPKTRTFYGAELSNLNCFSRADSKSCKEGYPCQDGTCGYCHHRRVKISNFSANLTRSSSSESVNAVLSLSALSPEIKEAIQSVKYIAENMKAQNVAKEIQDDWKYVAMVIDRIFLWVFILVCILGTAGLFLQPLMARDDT
rα3β4 nAChR, sequence (P12392 21-495 limits assumed): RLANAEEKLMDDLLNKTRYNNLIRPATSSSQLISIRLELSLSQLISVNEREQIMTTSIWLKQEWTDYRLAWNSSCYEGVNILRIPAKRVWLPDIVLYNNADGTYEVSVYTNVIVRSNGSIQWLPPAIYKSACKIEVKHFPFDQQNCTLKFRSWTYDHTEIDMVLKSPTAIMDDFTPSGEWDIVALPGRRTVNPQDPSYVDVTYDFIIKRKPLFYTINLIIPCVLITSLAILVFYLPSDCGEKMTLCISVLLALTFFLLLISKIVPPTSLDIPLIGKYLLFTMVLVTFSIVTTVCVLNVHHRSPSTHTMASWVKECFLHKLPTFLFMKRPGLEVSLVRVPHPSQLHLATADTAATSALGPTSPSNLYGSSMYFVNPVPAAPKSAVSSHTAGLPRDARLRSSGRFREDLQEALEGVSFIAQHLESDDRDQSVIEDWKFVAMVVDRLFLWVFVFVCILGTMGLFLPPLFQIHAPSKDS

rα6/α3β2β3 nAChR, sequence (P04757 whole entry, looked up): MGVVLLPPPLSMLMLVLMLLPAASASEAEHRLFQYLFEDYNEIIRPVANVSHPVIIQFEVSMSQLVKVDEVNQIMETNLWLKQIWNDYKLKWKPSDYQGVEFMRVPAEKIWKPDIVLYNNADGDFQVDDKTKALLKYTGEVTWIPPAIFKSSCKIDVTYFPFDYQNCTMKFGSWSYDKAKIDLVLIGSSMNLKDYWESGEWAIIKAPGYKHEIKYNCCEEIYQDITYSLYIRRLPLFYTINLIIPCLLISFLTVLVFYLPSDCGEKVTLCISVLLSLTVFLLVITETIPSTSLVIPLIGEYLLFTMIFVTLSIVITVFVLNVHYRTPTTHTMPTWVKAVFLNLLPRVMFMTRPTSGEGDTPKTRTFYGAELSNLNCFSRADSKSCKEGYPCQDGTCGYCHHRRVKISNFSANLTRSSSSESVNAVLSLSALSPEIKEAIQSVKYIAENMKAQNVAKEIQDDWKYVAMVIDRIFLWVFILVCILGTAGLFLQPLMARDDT
rα6/α3β2β3 nAChR, sequence (P12390 whole entry, looked up): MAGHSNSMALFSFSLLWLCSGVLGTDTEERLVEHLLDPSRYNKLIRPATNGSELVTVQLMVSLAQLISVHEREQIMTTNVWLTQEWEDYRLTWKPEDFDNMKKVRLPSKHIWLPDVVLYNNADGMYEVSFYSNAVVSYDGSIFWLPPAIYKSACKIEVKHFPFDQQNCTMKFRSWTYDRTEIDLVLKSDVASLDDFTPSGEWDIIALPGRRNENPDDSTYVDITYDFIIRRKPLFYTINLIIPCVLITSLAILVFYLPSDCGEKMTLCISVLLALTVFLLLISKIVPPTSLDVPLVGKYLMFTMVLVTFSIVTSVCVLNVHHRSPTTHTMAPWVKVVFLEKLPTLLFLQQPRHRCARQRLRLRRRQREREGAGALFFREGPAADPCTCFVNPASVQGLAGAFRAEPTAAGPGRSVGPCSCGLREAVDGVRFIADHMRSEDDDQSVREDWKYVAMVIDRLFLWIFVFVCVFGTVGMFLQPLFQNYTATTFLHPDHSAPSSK
rα6/α3β2β3 nAChR, sequence (P12391 whole entry, looked up): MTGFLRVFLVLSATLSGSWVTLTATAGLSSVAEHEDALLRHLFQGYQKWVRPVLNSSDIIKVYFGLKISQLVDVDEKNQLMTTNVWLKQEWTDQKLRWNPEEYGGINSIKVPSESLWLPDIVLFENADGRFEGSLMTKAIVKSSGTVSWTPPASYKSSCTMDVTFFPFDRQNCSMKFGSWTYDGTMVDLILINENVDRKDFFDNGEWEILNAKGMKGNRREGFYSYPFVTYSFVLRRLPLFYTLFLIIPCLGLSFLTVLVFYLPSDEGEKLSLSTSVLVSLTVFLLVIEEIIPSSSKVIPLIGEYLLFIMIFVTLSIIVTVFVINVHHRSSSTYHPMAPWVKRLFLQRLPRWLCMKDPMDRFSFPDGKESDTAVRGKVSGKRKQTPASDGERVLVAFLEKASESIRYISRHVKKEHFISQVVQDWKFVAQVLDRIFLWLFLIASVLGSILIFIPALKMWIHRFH
rα6/α3β2β3 nAChR, sequence (P43143 whole entry, looked up): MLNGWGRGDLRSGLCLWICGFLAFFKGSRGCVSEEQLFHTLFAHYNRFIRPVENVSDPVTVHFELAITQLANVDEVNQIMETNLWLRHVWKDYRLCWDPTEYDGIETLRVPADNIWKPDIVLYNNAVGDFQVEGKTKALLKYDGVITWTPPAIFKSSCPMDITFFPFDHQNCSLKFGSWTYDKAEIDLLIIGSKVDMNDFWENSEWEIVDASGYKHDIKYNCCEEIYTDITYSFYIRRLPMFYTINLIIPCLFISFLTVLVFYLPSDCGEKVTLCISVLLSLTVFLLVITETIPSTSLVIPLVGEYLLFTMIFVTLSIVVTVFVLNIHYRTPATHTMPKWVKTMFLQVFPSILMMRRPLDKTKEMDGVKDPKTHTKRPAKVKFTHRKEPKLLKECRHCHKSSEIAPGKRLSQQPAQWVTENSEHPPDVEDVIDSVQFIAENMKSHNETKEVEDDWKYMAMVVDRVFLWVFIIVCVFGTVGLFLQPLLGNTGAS
rα3β2 nAChR, sequence (P04757 26-499 limits assumed): as the sequence (P04757 26-499 limits assumed) above
rα3β2 nAChR, sequence (P12390 25-500 limits assumed): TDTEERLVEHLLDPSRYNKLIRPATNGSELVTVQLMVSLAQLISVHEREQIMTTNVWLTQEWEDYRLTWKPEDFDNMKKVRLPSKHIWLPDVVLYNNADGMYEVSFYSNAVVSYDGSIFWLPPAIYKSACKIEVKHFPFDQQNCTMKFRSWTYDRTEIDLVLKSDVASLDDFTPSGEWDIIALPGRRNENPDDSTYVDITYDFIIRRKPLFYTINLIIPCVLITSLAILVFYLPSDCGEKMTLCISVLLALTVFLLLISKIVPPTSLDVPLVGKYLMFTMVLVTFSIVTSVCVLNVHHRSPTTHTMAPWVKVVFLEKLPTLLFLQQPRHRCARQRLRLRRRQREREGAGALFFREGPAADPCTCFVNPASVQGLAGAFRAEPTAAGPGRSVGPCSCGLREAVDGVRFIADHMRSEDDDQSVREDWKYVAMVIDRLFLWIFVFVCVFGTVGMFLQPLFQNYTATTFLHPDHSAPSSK
rα6/α3β4 nAChR, sequence (P04757 whole entry, looked up): as the sequence (P04757 whole entry, looked up) above
rα6/α3β4 nAChR, sequence (P12392 whole entry, looked up): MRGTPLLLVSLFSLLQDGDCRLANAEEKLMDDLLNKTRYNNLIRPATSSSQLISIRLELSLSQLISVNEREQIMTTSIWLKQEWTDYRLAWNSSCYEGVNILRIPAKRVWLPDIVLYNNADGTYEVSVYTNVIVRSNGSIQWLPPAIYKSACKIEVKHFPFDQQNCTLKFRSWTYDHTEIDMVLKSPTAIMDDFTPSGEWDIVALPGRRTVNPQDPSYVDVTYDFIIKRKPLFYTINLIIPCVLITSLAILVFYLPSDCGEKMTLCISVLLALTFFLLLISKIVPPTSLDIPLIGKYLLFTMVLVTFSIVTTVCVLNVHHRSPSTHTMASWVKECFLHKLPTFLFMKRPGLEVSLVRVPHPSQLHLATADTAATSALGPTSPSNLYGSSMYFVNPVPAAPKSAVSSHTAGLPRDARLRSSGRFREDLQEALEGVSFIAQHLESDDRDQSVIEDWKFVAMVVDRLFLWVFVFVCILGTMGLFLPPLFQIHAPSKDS
rα6/α3β4 nAChR, sequence (P43143 whole entry, looked up): as the sequence (P43143 whole entry, looked up) above
rα4β2 nAChR, sequence (P09483 31-630 limits assumed): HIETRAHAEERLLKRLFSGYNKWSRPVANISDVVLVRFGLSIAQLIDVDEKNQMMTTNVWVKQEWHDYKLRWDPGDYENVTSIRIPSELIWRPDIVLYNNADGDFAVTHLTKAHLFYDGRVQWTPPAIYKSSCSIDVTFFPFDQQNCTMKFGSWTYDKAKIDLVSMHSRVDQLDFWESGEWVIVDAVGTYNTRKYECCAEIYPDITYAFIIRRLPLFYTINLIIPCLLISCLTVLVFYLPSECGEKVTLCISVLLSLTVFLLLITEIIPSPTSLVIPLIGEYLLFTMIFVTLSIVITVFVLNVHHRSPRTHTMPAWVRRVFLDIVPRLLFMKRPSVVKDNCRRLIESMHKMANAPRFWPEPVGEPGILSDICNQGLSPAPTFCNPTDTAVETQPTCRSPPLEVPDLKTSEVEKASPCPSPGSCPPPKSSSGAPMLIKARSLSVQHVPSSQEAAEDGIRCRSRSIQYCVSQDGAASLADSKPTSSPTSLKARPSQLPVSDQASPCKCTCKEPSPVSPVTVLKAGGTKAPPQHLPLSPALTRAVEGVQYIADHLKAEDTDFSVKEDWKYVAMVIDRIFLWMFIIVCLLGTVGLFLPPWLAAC
rα4β2 nAChR, sequence (P12390 25-500 limits assumed): as the sequence (P12390 25-500 limits assumed) above
rα4β4 nAChR, sequence (P09483 31-630 limits assumed): as the sequence (P09483 31-630 limits assumed) above
rα4β4 nAChR, sequence (P12392 21-495 limits assumed): as the sequence (P12392 21-495 limits assumed) above

As for `CC[C@H](C)[C@@H]1NC(=O)[C@H](CC(=O)O)NC(=O)[C@H](CCC(N)=O)NC(=O)[C@H](CC(N)=O)NC(=O)[C@H](CC(N)=O)NC(=O)CNC(=O)[C@H](C)NC(=O)[C@@H]2CSSC[C@H](NC(=O)CN)C(=O)N[C@@H](CSSC[C@@H](C(N)=O)NC1=O)C(=O)N[C@@H](CO)C(=O)N[C@@H](Cc1c[nH]cn1)C(=O)N1CCC[C@H]1C(=O)N[C@@H](C)C(=O)N2` [LvIF], the IC50 (usually the point on the concentration scale where inhibition reaches its midpoint) against rα3β2 nAChR is 0.00898 µM; against rα6/α3β2β3 nAChR, 0.0144 µM; on rα2β2 nAChR it was greater than 10 µM; against rα2β4 nAChR it was greater than 10 µM; against rα3β4 nAChR, greater than 10 µM; on rα4β4 nAChR, greater than 10 µM. Besides, the IC50 against rα4β2 nAChR, at rα6/α3β4 nAChR, against rα7 nAChR and at rα9α10 nAChR was greater than 10 µM each time. The inhibition – broadly, the percentage by which the read-out fell short of the control – at 0.01 µM was roughly 57% on rα3β2 nAChR (read-out: inhibition at 10 nM) and roughly 39% on rα6/α3β2β3 nAChR (read-out: inhibition at 10 nM). For the same molecule, the inhibition at 10 µM on rα3β2 nAChR (read-out: inhibition at 10 μM) was 98.3 ± 0.6%; on rα6/α3β2β3 nAChR (read-out: inhibition at 10 μM), 98.3 ± 0.3%; at rα2β2 nAChR (read-out: inhibition at 10 μM) it was 6.7 ± 4.5%; on rα2β4 nAChR (read-out: inhibition at 10 μM) it was 9.5 ± 2.4%; at rα4β4 nAChR (read-out: inhibition at 10 μM), 8.6 ± 4.2%; at rα4β2 nAChR (read-out: inhibition at 10 μM), 4.6 ± 2.5%. The inhibition at 10 µM stood at 2.3 ± 3.3% on rα6/α3β4 nAChR (read-out: inhibition at 10 μM), 12.3 ± 4.2% at rα7 nAChR (read-out: inhibition at 10 μM) and 1.31 ± 5.2% at rα9α10 nAChR (read-out: inhibition at 10 μM). For the same molecule, the “inhibition at 1 μM” value at rα3β4 nAChR is reported as “no inhibition”.
